Results on three molecules are retold here after US20070082397A1, “Ex vivo progenitor and stem cell expansion for use in the treatment of disease of endodermally-derived organs” (priority 2003, published 2007).

Structures are written as SMILES. Entries after “also recorded” stand apart in the source; their conditions may differ.

Data set [1] deals with hepatocytes from adult mouse livers. The data set is described as follows: Primary adult mouse hepatocyte culture: expansion of hepatic stem (oval) cells. In kind it is cell-based. To be noted: for oval cells in hepatocyte culture: medium supplemented with 10 μM AGN 194310 or TEPA 10 μM, FIG. 1; for growth of cultured hepatocytes and appearance of hepatic stem (oval) cells: primary culture with EGF and HGF, TEPA 10 μM or AGN 194310 10 μM, compared with control cultures without additions. On the procedure:
Intact livers were harvested from 3 week old VLVC female mice (Harlan Laboratories, Jerusalem, Israel), dissected and washed twice with DMEM (Beit Haemek, Israel), incubated with DMEM in the presence 0.05% collagenase for 30 minutes at 37° C., ground and passed through a 200 μm mesh sieve, yielding individual hepatocytes. Cells were washed twice and viability was ascertained with trypan blue. Cells were plated in collagen-coated, 35 mm tissue culture plates at a density of 4-×10^4 live cells/ml in F12 media (containing 15 mM Hepes, 0.1% glucose, 10 mM sodium bicarbonate, 100 units/ml penicillin-streptomycin, glutamine, 0.5 units/ml insulin, 7.5 m cg/ml hydrocortisone, and 10% fetal bovine serum). Medium was changed after 12 hours, the cells were washed twice with phosphate buffered saline (PBS) and new medium was added. Medium was changed twice a week.
Hepatocytes were also grown in the presence of Epidermal Growth Factor (EGF), Platelet-Derived Growth Factor β chain (PDGF-BB), Fibroblast growth Factors (FGF-4) and Hepatocyte Growth Factor (HGF), at 20-50 ng/ml each, for the entire culturing period according to the method of Schwartz et al. (Schwartz R E, Reyes M, Koodie L, Jiang Y, Blackstad M, Lund T, Lenvik T, Johnson S, Hu W S, Verfaillie C M. Multipotent adult progenitor cells from bone marrow differentiate into functional hepatocyte-like cells. J Clin Invest. 2002; 109 (10): 1291-302). Hepatocytes were also grown in serum free medium according to the method of Runge et al. (Runge D, Runge D M, Jager D, Lubecki K A, Beer Stolz D, Karathanasis S, Kietzmann T, Strom S C, Jungermann K, Fleig W E, Michalopoulos G K. Serum-free, long-term cultures of human hepatocytes: maintenance of cell morphology, transcription factors, and liver-specific functions. Biochem Biophys Res Commun. 2000; 269(1): 46-53).
In all of the above-mentioned hepatocytes culture conditions, cells are grown in the presence or absence of the retinoic acid antagonist AGN 194310 or the transition metal chelator tetraethylenepentamine TEPA) at 10^−5 M.
After a period of 3 weeks, cultures treated with 10^−5 M AGN 194310 or TEPA were detached with 0.25% trypsin, split and replated at a 1:2 ratio. The cells were visualized with Giemsa staining.
Murine hepatocyte cultures supplemented with EGF and HGF were evaluated as primary cultures, or following first and second passages. First passage cultures were grown for 2 weeks, split 1:2 and cells stained 8 days later. Second passage cultures were similarly grown for 2 weeks, split 1:2, and grown for an additional week, then split 1:4 and similarly stained 4 days later.
Hepatocytes and ex-vivo expanded cells were fixed in methanol directly in their cell culture plates and each procedure performed by standard procedures as outlined below.
Ex-vivo expanded cells and hepatocytes were stained with Giemsa stain, according to manufacturer's instructions (Shandon, Pittsburg, Pa.) for 4 minutes at room temperature, washed in buffer solution for 4 minutes, washed 3-4 times with rinse solution and visualized by light microscopy. Nuclei were stained with hematoxylin (Dako, Carpinteria, Calif.).

For data set [2] the following is noted: cited from earlier work.
Data set [3] has as its system erythroid progenitor cells, cultured mouse erythroleukemia cells, embryonal stem cells, and hepatocytes in primary hepatocyte culture. To be noted: cited from earlier work.
The test system of data set [4] is stem and progenitor hematopoietic cells. Particulars: cited from earlier work.
For data set [5], the system named is cord-blood-derived, bone marrow-derived, and peripheral blood derived stem and progenitor cells. Particulars: grown without a feeder layer; cited from earlier work.

Regarding `CCc1ccc(C2=CC(C)(C)Sc3ccc(C#Cc4ccc(C(=O)O)cc4)cc32)cc1` [AGN 194310], in data set [1], the “oval cells in hepatocyte culture” value is on record as “abundance of oval cells”; the “growth of cultured hepatocytes and appearance of hepatic stem (oval) cells” value was “clearly induced growth of the cultured hepatocytes, and the appearance of hepatic stem (oval) cells”.
For `O=c1cc(N2CCOCC2)oc2c(-c3ccccc3)cccc12` [LY294002], the membrane permeability result in data set [2] was “membrane permeable”.
Take `NCCNCCNCCNCCN` [TEPA, tetraethylenepentamine]: in data set [3], the proliferation and differentiation result is “Facilitation of proliferation while inhibiting differentiation”. Further, in data set [1], the “oval cells in hepatocyte culture” value is “abundance of oval cells; also recorded: increase in the proportion of oval cells”; the “growth of cultured hepatocytes and appearance of hepatic stem (oval) cells” value was “clearly induced growth of the cultured hepatocytes, and the appearance of hepatic stem (oval) cells”. In addition, in data set [1] (primary hepatocyte cultures), the “persistence of treated hepatocyte cultures in culture” value is “at least 3 weeks”. In data set [4], the “long term ex vivo stem cell proliferation and differentiation” value is listed as “effective promotion of long term ex vivo stem cell proliferation, while inhibiting differentiation”. Besides, the “fraction of CD34+ cells and their long-term clonability” value in data set [5] was “greatly enhanced the fraction of CD34^+ cell and their long-term clonability”.
